Laboratory results published in patent US20040219106A1, “Compounds for use as surfactants” (priority 2001, published 2004).

Legend:
Format in all cases: physicochemical
[1] = Content uniformity by dose through use testing; settings: for BuO dose: actuations 1+2, mean of 10 inhalers; for EuO dose: actuations 119+120, mean of 10 inhalers
Protocol: (§1) Salmeterol xinafoate formulations in HFA 134a (1,1,1,2-tetrafluoroethane), of strength 25 μg per actuation, and 10% w/w (relative to drug) of the surfactant compound of Example 1 (Bis(4,4,5,5,5-pentafluopentanoyl)phosphatidylcholine) were prepared using salmeterol xinafoate (5.8 mg), HFA 134a (12 g) and the relevant compound (0.58 mg). The control was prepared without the addition of a surfactant.
The content uniformity of the formulation, the preparation of which is described above, was assessed by dose through use testing. Testing was performed on 10 cans/inhalers at “beginning of use” (BoU) and “end of use” (EoU). After each inhaler had been primed (4 shots fired to waste), actuations 1 and 2 (BoU) were collected. The next 116 actuations of each inhaler were then fired to waste using an automated method and actuations 119 and 120 (EoU) collected.
Assesment of content uniformity was performed intially (following sample preparation) and then on a further 10 inhalers for each timepoint, 8 weeks and 3 months, which were stored at 40° C./75% RH. Mean results from the two BoU actuations (1+2 for 10 inhalers) and the two EoU actuations (119+120 for same 10 inhalers) at each timepoint together with the percentage relative standard deviation (% RSD) for the 10 cans are shown in Table 3.

[2] = Particle size of salmeterol xinafoate HFA 134a suspension by image analysis (Galai CIS-100)
Protocol: as §1
In this measurement, particle size is represented as the equivalent diameter of a circle of equal area to the object. The mean is the average of 4 determinations. The particle size measurement was obtained by transferring the suspensions to a presurised cell, and video-imaging the sample under shear via a microscope objective.
The equivalent diameter is defined as the diameter of a circle of equal area to the object. [formula]
The mean equivalent diameter can be weighted by number, length or volume. e.g. For three particles with equivalent diameters of x, y and z: [formula]

[3] = Andersen Cascade Impaction of salmeterol xinafoate HFA 134a formulation; settings: for % FPM (FPM as percentage of total dose emitted ex-valve) / FPM (fine particle mass, sum of stages 3-5) / Total Dose Emitted (Ex-Actuator) / Total Dose Emitted (Ex-Valve): BoU, mean of 3 cans/inhalers
Protocol: as §1
The formulation, the preparation of which is described above, was profiled using an Andersen Cascade Impactor. Ten actuations at “beginning of use” (BoU) were collected in the impactor from an inhaler after 4 priming actuations were fired to waste. The drug delivered was then quantified by HPLC analysis. Testing was performed intially (following sample preparation) and then after inhalers had been stored at 40° C./75% RH for 8 weeks and for 3 months. The results, at each timepoint, in Table 2 are shown as the mean analysis of 3 cans/inhalers.
The profile obtained was used to determine total dose emitted dose (ex-valve and ex-actuator) and the fine particle mass (FPM, defined as the sum of stages 3-5). The percentage fine particle mass expresses the FPM as a percentage of the total dose emitted (ex-valve). The FPM is used as a measure of the proportion of the drug likely to reach the therapeutic target in the lungs.

[4] = in the presence of the surfactant

Work on `C[N+](C)(C)CCOP(=O)([O-])OC[C@@H](COC(=O)CCC(F)(F)C(F)(F)F)OC(=O)CCC(F)(F)C(F)(F)F` [Example 1, Bis(4,4,5,5,5-pentafluopentanoyl)phosphatidylcholine] yielded a BuO dose ([1]; 3 Month at 40° C./75% RH) of 19.7 µg, an EuO dose ([1]; 3 Month at 40° C./75% RH) of 22.6 µg and a BuO dose ([1]; 8 Week at 40° C./75% RH) of 20.3 µg. The EuO dose ([1]; 8 Week at 40° C./75% RH) was 24.2 µg, the “change in percentage RSD at EoU versus control (can to can reproducibility)” value ([1]; 10 inhalers tested) was “reduction” and the BuO dose ([1]; Initial) was 19.6 µg. The EuO dose ([1]; Initial) was 23.3 µg, the “change in average particle size (mean length weighted diameter) versus control” value ([2]; compound incorporated into the formulation) was “marked reduction” and the “Mean Length weighted diameter” value ([2]; salmeterol xinafoate 25 μg per actuation in HFA 134a, 10% w/w surfactant relative to drug, average of 4 determinations) was 13.3 μm. For the same compound, the “suspension stabilising properties (discouraging flocculation of drug particles)” value ([2]; salmeterol xinafoate in HFA 134a, 10% w/w surfactant) was “suspension stabilising properties”, the “% FPM (FPM as percentage of total dose emitted ex-valve)” value ([3]; 3 month at 40° C./75% RH) was 42.5% and the “FPM (fine particle mass, sum of stages 3-5)” value ([3]; 3 month at 40° C./75% RH) was 10.4 µg. The “Total Dose Emitted (Ex-Actuator)” value ([3]; 3 month at 40° C./75% RH) was 20.1 µg, the “Total Dose Emitted (Ex-Valve)” value ([3]; 3 month at 40° C./75% RH) was 24.4 µg and the “% FPM (FPM as percentage of total dose emitted ex-valve)” value ([3]; 8 week at 40° C./75% RH) was 44.2%. For the same compound, the “FPM (fine particle mass, sum of stages 3-5)” value ([3]; 8 week at 40° C./75% RH) was 10.4 µg, the “Total Dose Emitted (Ex-Actuator)” value ([3]; 8 week at 40° C./75% RH) was 19.5 µg and the “Total Dose Emitted (Ex-Valve)” value ([3]; 8 week at 40° C./75% RH) was 23.5 µg. The “% FPM (FPM as percentage of total dose emitted ex-valve)” value ([3]; Initial) was 47.7%, the “FPM (fine particle mass, sum of stages 3-5)” value ([3]; Initial) was 11.1 µg and the “Total Dose Emitted (Ex-Actuator)” value ([3]; Initial) was 20.0 µg. For the same compound, the “Total Dose Emitted (Ex-Valve)” value ([3]; Initial, 10% w/w surfactant) was 23.3 µg, the “change in absolute FPM versus control” value [3, 4] was “increase” and the “change in absolute doses emitted versus control” value [3, 4] was “increase”. The “change in percentage FPM versus control” value [3, 4] was “significant increase”.
